Measurements from patent publication US6683103B2, “Sulfonamides for treatment of endothelin-mediated disorders” (Texas Biotechnology Corporation, priority 1997, dated 2004).
Like-named read-outs stand apart in the source and are kept apart here.

Experiments:
human ETA receptors = molecular target: T1, human ETA receptors (Homo sapiens, UniProt P25101); experiment: Binding Test #1: inhibition of 125I-ET-1 binding to ETA receptors (TE 671 cell membranes)
T1 construct: endogenous in cells; host or cells: TE 671 cells (ATCC HTB 139)
T1 sequence (P25101 21-427): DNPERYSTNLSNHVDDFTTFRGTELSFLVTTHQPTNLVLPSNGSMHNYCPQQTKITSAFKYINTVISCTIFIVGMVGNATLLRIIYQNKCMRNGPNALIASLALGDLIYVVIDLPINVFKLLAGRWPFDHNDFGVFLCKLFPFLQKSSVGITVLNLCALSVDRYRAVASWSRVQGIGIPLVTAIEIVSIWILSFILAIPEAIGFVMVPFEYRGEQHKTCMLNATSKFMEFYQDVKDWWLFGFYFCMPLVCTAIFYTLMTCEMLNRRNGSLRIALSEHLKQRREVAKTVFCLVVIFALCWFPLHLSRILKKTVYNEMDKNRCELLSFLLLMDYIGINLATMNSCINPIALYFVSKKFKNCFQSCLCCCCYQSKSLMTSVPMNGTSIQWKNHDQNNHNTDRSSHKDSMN
Method in brief: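 Radioligand competition in triplicate: ¹²⁵I-endothelin-1 displaced by test compound (1 nM–100 μM final) from ETA-bearing TE 671 cell membranes in HEPES pH 7.4 binding buffer with NaCl, MgCl2 and bacitracin. Incubation 16–18 h at 4 °C (or at 24 °C); 80 nM ET-1 defines nonspecific binding; pellet radioactivity gives percent inhibition.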

human ETB receptor = molecular target: T2, human ETB receptor (Homo sapiens, UniProt P24530); experiment: Binding Test #2: inhibition of 125I-ET-1 binding to ETB receptors (transfected COS7 cell membranes)
T2 construct: expressed in transfected cells; host or cells: COS7 cells
T2 sequence (P24530 27-442): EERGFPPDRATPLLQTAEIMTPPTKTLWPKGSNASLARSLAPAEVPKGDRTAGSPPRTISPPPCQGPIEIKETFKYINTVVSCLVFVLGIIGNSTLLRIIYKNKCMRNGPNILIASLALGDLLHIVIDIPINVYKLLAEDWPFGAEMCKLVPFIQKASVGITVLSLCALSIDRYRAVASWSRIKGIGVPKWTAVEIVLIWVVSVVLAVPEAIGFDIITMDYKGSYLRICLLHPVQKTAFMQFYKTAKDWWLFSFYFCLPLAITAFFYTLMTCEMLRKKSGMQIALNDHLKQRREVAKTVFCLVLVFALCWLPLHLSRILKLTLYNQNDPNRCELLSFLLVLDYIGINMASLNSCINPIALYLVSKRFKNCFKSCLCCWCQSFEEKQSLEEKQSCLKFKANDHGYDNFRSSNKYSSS
Method in brief: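 Competition with 125I-ET-1 for binding to membranes from COS7 cells transfected with human ETB receptor, used at 1 μg/50 μl binding buffer. Membranes prepared in HEPES pH 7.4 with aprotinin, including a DNase/MnCl2 step at 37 °C for 30 min.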

[1] = Table 1, incubation at 4° C., read-out: ETA
[2] = Table 1, incubation at 4° C., read-out: ETB
[3] = Table 1, † incubation at 24° C., read-out: ETA
[4] = Table 1, † incubation at 24° C., read-out: ETB
[5] = Table 2, incubation at 4° C., read-out: ETA
[6] = Table 2, † incubation at 24° C., read-out: ETA
[7] = Table 2, incubation at 4° C., read-out: ETB
[8] = Table 2, † incubation at 24° C., read-out: ETB

IC50 (human ETA receptors; [1]) [µM] | IC50 (human ETB receptor; [2]) [µM] | IC50 (human ETA receptors; [3]) [µM] | IC50 (human ETB receptor; [4]) [µM] | Compound | further results
0.57 | 0.333 | – | – | Cc1noc(NS(=O)(=O)c2ccc(S(=O)(=O)c3ccccc3)s2)c1Br [N-(4-Bromo-3-methyl-5-isoxazolyl)-5-benzenesulfonylthiophene-2-sulfonamide] | –
– | 4.14 | 0.0967 | – | Cc1noc(NS(=O)(=O)c2sccc2CC=Cc2cc3c(cc2COC2CCCCO2)OCO3)c1Br (stereo not drawn) [N-(4-bromo-3-methyl-5-isoxazolyl)-3-{2-[(tetrahydro-4H-pyran-2-ylxoy)methyl]-4,5-(methylenedioxy)cinnamyl}thiophene-2-sulfonamide] | –
11.4 | 0.166 | – | – | Cc1noc(NS(=O)(=O)c2cccn2-c2ccc(C(C)C)cc2)c1Br [N-(4-Bromo-3-methyl-5-isoxazolyl)-1-(4′-isopropylphenyl)pyrrole-2-sulfonamide] | –
– | – | 14 | 1.4 | Cc1noc(NS(=O)(=O)c2ccc(-c3cccc4ccccc34)s2)c1Br [N-(4-bromo-3-methyl-5-isoxazolyl)-5-(1-naphthyl)thiophene-2-sulfonamide] | –
– | – | 0.5 | 79 | Cc1noc(NS(=O)(=O)c2sccc2-c2ccc3c(c2)OCO3)c1Br [N-(4-bromo-3-methyl-5-isoxazolyl)-3-[(3,4-methylenedioxy)phenyl]thiophene-2-sulfonamide] | –
– | – | 28 | 8.6 | Cc1ccc(NC(=O)c2ccc(S(=O)(=O)Nc3onc(C)c3Br)s2)cc1 [N-(4-bromo-3-methyl-5-isoxazolyl)-5-(4-tolyl)aminocarbonyl)thiophene-2-sulfonamide] | –
– | – | > 100 | 17 | COC(=O)c1ccc(-c2ccc(S(=O)(=O)Nc3onc(C)c3Br)s2)cc1 [N-(4-bromo-3-methyl-5-isoxazolyl)-5-(4-methyoxycarbonylphenyl)thiophene-2-sulfonamide] | –
4.49 | 0.38 | – | – | Cc1noc(NS(=O)(=O)c2ccc(-c3ccsc3)s2)c1Br [N-(4-bromo-3-methyl-5-isoxazolyl)-5-(3-thienyl)thiophene-2-sulfonamide] | –
– | – | – | – | Cc1noc(NS(=O)(=O)c2ccc(-c3ccccc3)cc2)c1C [N-(3,4-dimethyl-5-isoxazolyl)-4-biphenylsufonamide] | IC50 (human ETA receptors; [5]): 9.9 ± 1.4 µM; IC50 (human ETA receptors; [6]): 6.3 µM; IC50 (human ETB receptor; [7]): 0.77 ± 0.32 µM; IC50 (human ETB receptor; [8]): 0.15 µM
– | – | 0.236 | 18 | Cc1noc(NS(=O)(=O)c2sccc2CCc2ccc3c(c2)OCO3)c1Br [N-(4-bromo-3-methyl-5-isoxazolyl)-3-[3,4-(methylenedioxy)phenethyl]thiophene-2-sulfonamide] | –
8.69 | 0.363 | 26.3 | 2.4 | COc1ccc(-c2ccc(S(=O)(=O)Nc3onc(C)c3Br)s2)cc1 [N-(4-bromo-3-methyl-5-isoxazolyl)-5-(4-methoxyphenyl)thiophene-2-sulfonamide] | –
– | – | 12 | 0.71 | CCc1ccc(-c2ccc(S(=O)(=O)Nc3onc(C)c3Cl)s2)s1 [N-(4-chloro-3-methyl-5-isoxazolyl)-5-(5-ethylthien-2-yl)thiophene-2-sulfonamide] | –
0.003 | 5.86 | – | – | COc1cccc(NC(=O)c2sccc2S(=O)(=O)Nc2onc(C)c2Br)c1 [N-(4-Bromo-3-methyl-5-isoxazolyl)-2-[N-(3-methoxyphenyl)aminocarbonyl]thiophene-3-sulfonamide] | –
– | – | 32 | 7.5 | Cc1ccc(-c2ccc(S(=O)(=O)Nc3onc(C)c3Br)s2)o1 [N-(4-bromo-3-methyl-5-isoxazolyl)-5-(2-methyfuranyl)thiophene-2-sulfonamide] | –
6.64 | 3.97 | – | – | Cc1noc(NS(=O)(=O)c2cc(CCc3ccccc3)cs2)c1Br [N-(4-bromo-3-methyl-5-isoxazolyl)-4-(phenethyl)thiophene-2-sulfonamide] | –
– | – | – | – | N-(4-bromo-3-methyl-5-isoxazolyl)-3′,4′-methylenedioxyphenyl-4-biphenylsulfonamide | IC50 (human ETA receptors; [6]): 38.2 ± 4.95 µM; IC50 (human ETB receptor; [8]): 3 ± 0.78 µM
– | – | 0.0804 | 3.28 | Cc1cc2c(cc1C=CCc1sccc1S(=O)(=O)Nc1onc(C)c1Br)OCO2 [N-(4-bromo-3-methyl-5-isoxazolyl)-2-[2-methyl-4,5-(methylenedioxy)cinnamyl]thiophene-3-sulfonamide] | –
0.135 | 23.4 | – | – | Cc1noc(NS(=O)(=O)c2ccsc2)c1Br [N-(4-bromo-3-methyl-5-isoxazolyl)thiophene-3-sulfonamide] | –
– | – | ~0.1 | ~6 | Cc1cc2c(cc1C=CCc1ccsc1S(=O)(=O)Nc1onc(C)c1Br)OCO2 [N-(4-bromo-3-methyl-5-isoxazolyl)-3-[2-methyl-4,5-(methylenedioxy)cinnamyl]thiophene-2-sulfonamide] | –
– | – | – | – | Cc1noc(NS(=O)(=O)c2ccccc2-c2ccccc2)c1Cl [N-(4-chloro-3-methyl-5-isoxazolyl)-2-biphenylsulfonamide] | IC50 (human ETA receptors; [5]): 0.00123 µM; IC50 (human ETB receptor; [7]): ~14 µM
0.0182 | ~170 | – | – | Cc1noc(NS(=O)(=O)c2ccsc2C(=O)Nc2ccccc2)c1C [N-(3,4-dimethyl-5-isoxazolyl)-2-(N-phenylaminocarbonyl)thiophene-3-sulfonamide] | –
– | – | – | – | Cc1noc(NS(=O)(=O)c2ccccc2-c2ccccc2)c1C [N-(3,4-dimethyl-5-isoxazolyl)-2-biphenylsulfonamide] | IC50 (human ETA receptors; [5]): 0.0083 ± 0.0014 µM; IC50 (human ETA receptors; read-out: IC50 for ETA receptors): ~0.008 µM; IC50 (human ETB receptor; [7]): 12.8 µM
– | – | – | – | Cc1noc(NS(=O)(=O)c2cccc(-c3ccccc3)c2)c1C [N-(3,4-dimethyl-5-isoxazolyl)-3-biphenylsulfonamide] | IC50 (human ETA receptors; [5]): > 0.03 µM; IC50 (human ETB receptor; [7]): 3.48 µM; IC50 (human ETB receptor; read-out: IC50 for ETB receptors): ~3.48 µM
– | – | 24 | 7.7 | CCc1ccc(-c2ccc(S(=O)(=O)Nc3onc(C)c3Br)s2)s1 [N-(4-bromo-3-methyl-5-isoxazolyl)-5-(5-ethylthien-2-yl)thiophene-2-sulfonamide] | –
– | – | 0.794 | 6.49 | N-(4-chloro-3-methyl-5-isoxazolyl)-2-[2-methyl-4,5-(methylenedioxy)phenylhydroxyimino]thiophene-3-sulfonamide | –
0.0208 | 98.1 | – | – | COC(=O)c1sccc1S(=O)(=O)Nc1onc(C)c1Br [N-(4-bromo-3-methyl-5-isoxazolyl)-2-(carbomethoxy)thiophene-3-sulfonamide] | –
– | – | 29 | 5.6 | CCCC#Cc1ccc(S(=O)(=O)Nc2onc(C)c2Br)s1 [N-(4-bromo-3-methyl-5-isoxazolyl)-5-(1-pentynyl)thiophene-2-sulfonamide] | –
– | – | 0.302 | 6.61 | Cc1noc(NS(=O)(=O)c2ccsc2COc2ccc3c(c2)OCO3)c1Br [N-(4-bromo-3-methyl-5-isoxazolyl)-2-{[3,4-(methylenedioxy)phenoxy]methyl}thiophene-3-sulfonamide] | –

Compound | IC50 (human ETA receptors; [1]) [µM] | IC50 (human ETB receptor; [2]) [µM] | IC50 (human ETA receptors; [3]) [µM] | IC50 (human ETB receptor; [4]) [µM] | further results
Cc1cc2c(cc1CCc1ccsc1S(=O)(=O)Nc1onc(C)c1Br)OCO2 [N-(4-bromo-3-methyl-5-isoxazolyl)-3-[2-methyl-4,5-(methylenedioxy)phenethyl]thiophene-2-sulfonamide] | – | – | ~0.1 | ~5 | –
CC(=O)OCc1c(C)cc(C)c(NC(=O)c2sccc2S(=O)(=O)Nc2onc(C)c2Cl)c1C [N-(4-chloro-3-methyl-5-isoxazolyl)-2-(3-acetoxymethyl-2,4,6-trimethylphenylaminocarbonyl)thiophene-3-sulfonamide] | – | – | 0.0006 | > 100 | –
